Holding throughout (format): cell-based
One assay has as its system Bacillus subtilis (Bs). In words: Minimum inhibitory concentration (MIC) in nutrient agar, Bacillus subtilis. The protocol: (§1) The antimicrobial activity of the compounds of the present invention is set forth as the minimum inhibitory concentration (MIC) for the active compounds and is determined for nine (9) bacteria, using nutrient agar, and seven (7) yeast and fungi, using malt yeast agar. This determination is conducted using a one percent solution of the test compound prepared in a mixture of acetone and water.
(§2) Nutrient agar is prepared at pH 6.8, representing a neutral medium, and at pH 8.2, representing an alkaline medium. The nutrient agars are prepared by adding 23 g of nutrient agar to one-liter of deionized water. In addition, the alkaline medium is prepared by adjusting a 0.04M solution of N-[tris-(hydroxymethyl)methyl]glycine buffered deionized water with concentrated sodium hydroxide to a pH of 8.5.
(§3) The test tubes containing the agar are cooled in a water bath until the temperature of the agar is 48° C. Then, an appropriate amount of the one percent solution of the test compound is added (except in the controls where no compound is added) to the respective test tubes so that the final concentrations are 500, […], 100, 50, 25, 10, 5, 2.5, 1.0 and zero parts per million of the test compound in the agar, thus having a known concentration of test compound dispersed therein. The contents of the test tubes are then transferred to respective petri plates. After drying for 24 hours, the petri plates containing nutrient agar are inoculated with bacteria and those containing malt yeast agar are inoculated with yeast and fungi.
(§4) The inoculation with bacteria is accomplished by using the following procedure. Twenty-four hour-cultures of each of the bacteria are prepared by incubating the respective bacteria in tubes containing nutrient broth for 24 hours at 30° C. in a shaker. Dilutions of each of the 24 hour-cultures are made so that nine separate suspensions (one for each of the nine test bacteria) are made, each containing 10^8 colony forming units (CFU) per mL of suspension of a particular bacteria. Aliquots of 0.3 mL of each of the bacterial suspensions are used to fill the individual wells of Steer's Replicator. For each microbial suspension, 0.3 mL was used to fill three wells (i.e., three wells of 0.3 mL each) so that for the nine different bacteria, 27 wells are filled. The Steer's Replicator is then used to inoculate both the neutral and alkaline pH nutrient agar petri plates.
(§5) The inoculated petri plates are incubated at 30° C. for 48 hours and then read to determine if the test compound which is incorporated into the agar prevented growth of the respective bacteria.

Assay [1] concerns Enterobacter aerogenes (Ea). In words: Minimum inhibitory concentration (MIC) in nutrient agar, Enterobacter aerogenes. The conditions noted are these: Klebsiella aerogenes, 48 h. How it is done: as §1, §2, §3, §4, §5
The next assay concerns Escherichia coli (Ec). In words: Minimum inhibitory concentration (MIC) in nutrient agar, Escherichia coli. Particulars: 48 h. How it is done:
as §1, §2, §3, §4, §5

The subject of assay [2] is Klebsiella pneumoniae (Kp). The experiment in a line: Minimum inhibitory concentration (MIC) in nutrient agar, Klebsiella pneumoniae. How it is done:
as §1, §2, §3, §4, §5

The test system of another assay is Proteus vulgaris (Pv). The experiment in a line: Minimum inhibitory concentration (MIC) in nutrient agar, Proteus vulgaris. The conditions noted are these: 48 h. The protocol: as §1, §2, §3, §4, §5
For assay [3], the system named is Pseudomonas aeruginosa (PRD-10). In words: Minimum inhibitory concentration (MIC) in nutrient agar, Pseudomonas aeruginosa PRD-10. The conditions noted are these: 48 h. The protocol: as §1, §2, §3, §4, §5
Assay [4] deals with Pseudomonas aeruginosa (Pa). In words: Minimum inhibitory concentration (MIC) in nutrient agar, Pseudomonas aeruginosa. Particulars: 30° C., 48 hours, read-out: Minimum Inhibitory Concentration, Pa. The protocol:
as §1, §2, §3, §4, §5

Assay [5] concerns Salmonella choleraesuis (Se). In words: Minimum inhibitory concentration (MIC) in nutrient agar, Salmonella choleraesuis. The conditions noted are these: Salmonella enterica. How it is done:
as §1, §2, §3, §4, §5

For assay [6], the system named is Staphylococcus aureus (Sa). The experiment in a line: Minimum inhibitory concentration (MIC) in nutrient agar, Staphylococcus aureus. The protocol:
as §1, §2, §3, §4, §5

The subject of the next assay is Aspergillus niger (An). The experiment in a line: Minimum inhibitory concentration (MIC) in malt yeast agar, Aspergillus niger. Particulars: pH 5.5; malt yeast agar, 30° C., 72 hours for fungi; read-out: Minimum Inhibitory Concentration, An. The protocol: as §1
(§6) Malt yeast agar is prepared at pH 5.5 by adding 3 g yeast extract and 45 g malt agar per liter of deionized water. The specific agar is dispensed in 30 mL aliquots into 25×200 mm test tubes, capped and autoclaved for 15 minutes at 115° C.
as §3
(§7) The inoculation with the yeast and fungi is accomplished as follows. Cultures of yeast and fungi are incubated for seven days on malt yeast agar at 30° C. These cultures are used to prepare suspensions by the following procedure. A suspension of each organism is prepared by adding 10 mL of sterile saline and 10 microliters of octylphenoxy polyethoxy ethanol to the agar slant of yeast or fungi. The sterile saline/octylphenoxy potyethoxy ethanol solution is then agitated with a sterile swab to suspend the microorganism grown on the slant. Each resulting suspension is diluted into sterile saline (1 part suspension: 9 parts sterile saline). Aliquots of these dilutions are placed in individual wells of Steer's Replicator and petri plates inoculated as previously described. The petri plates are incubated at 30° C. and read after 48 hours for yeast and 72 hours for fungi.

The subject of another assay is Candida albicans (Ca). In words: Minimum inhibitory concentration (MIC) in malt yeast agar, Candida albicans. Particulars: pH 5.5; malt yeast agar, 30° C., 48 hours for yeast; read-out: Minimum Inhibitory Concentration, Ca. How it is done: as §1, §6, §3, §7
Assay [7] relates to Saccharomyces cerevisiae (Sc). In words: Minimum inhibitory concentration (MIC) in malt yeast agar, Saccharomyces cerevisiae. How it is done: as §1, §6, §3, §7
A further assay has as its system Trichoderma viride (Tv). The experiment in a line: Minimum inhibitory concentration (MIC) in malt yeast agar, Trichoderma viride. The conditions noted are these: pH 5.5; malt yeast agar, 30° C., 72 hours for fungi; read-out: Minimum Inhibitory Concentration, Tv. The protocol:
as §1, §6, §3, §7

The subject of assay [8] is Aureobasidium pullulan (Ap). In words: Minimum inhibitory concentration (MIC) in malt yeast agar, Aureobasidium pullulan. The conditions noted are these: pH 5.5, read-out: Minimum Inhibitory Concentration, Ap. How it is done: as §1, §6, §3, §7
The subject of the next assay is Fusarium oxysporum (Fo). In words: Minimum inhibitory concentration (MIC) in malt yeast agar, Fusarium oxysporum. Particulars: pH 5.5; malt yeast agar, 30° C., 72 hours for fungi; read-out: Minimum Inhibitory Concentration, Fo. The protocol: as §1, §6, §3, §7
The test system of assay [9] is Penicillium chrysogenum (Pc). In words: Minimum inhibitory concentration (MIC) in malt yeast agar, Penicillium chrysogenum. Particulars: 72 h, pH 5.5, read-out: Minimum Inhibitory Concentration, PC. How it is done: as §1, §6, §3, §7
[10] abbreviates: pH 6.8, nutrient agar, 30° C., 48 hours, read-out: Minimum Inhibitory Concentration, Bs.
[11] abbreviates: pH 6.8, read-out: Minimum Inhibitory Concentration, Ea.
Setting [12] is: pH 8.2, read-out: Minimum Inhibitory Concentration, Ea.
[13] abbreviates: pH 6.8, read-out: Minimum Inhibitory Concentration, Ec.
[14] abbreviates: pH 8.2, read-out: Minimum Inhibitory Concentration, Ec.
Where [15] appears, read: 48 h, pH 8.2, read-out: Minimum Inhibitory Concentration, Kp.
The mark [16] stands for this setting: pH 6.8, read-out: Minimum Inhibitory Concentration, Pv.
The mark [17] stands for this setting: pH 8.2, read-out: Minimum Inhibitory Concentration, Pv.
The mark [18] stands for this setting: pH 6.8, read-out: Minimum Inhibitory Concentration, PRD.
Where [19] appears, read: pH 8.2, read-out: Minimum Inhibitory Concentration, PRD.
[20] abbreviates: 48 h, pH 8.2, read-out: Minimum Inhibitory Concentration, SC.

Structures are written as SMILES. Values after ≈ are worked out from the molar mass of the structure shown. Like-named read-outs stand apart in the source and are kept apart here. Bounds are passed on as bounds.

For `N#CSc1nsnc1-c1cccc(Cl)c1` [Example III, 4-(3-Chlorophenyl)-3-thiocyanato-l,2,5-thiadiazole], the MIC in the assay with Bacillus subtilis (Bs) (setting [10]) was 25 µg/mL (≈ 98.5 µM); with Bacillus subtilis (Bs) (pH 8.2, nutrient agar, 30° C., 48 hours, read-out: Minimum Inhibitory Concentration, Bs), 100 µg/mL (≈ 394 µM); in assay [1] (setting [11]) it was over 500 µg/mL; in assay [1] (setting [12]), over 500 µg/mL; with Escherichia coli (Ec) (setting [13]), 50 µg/mL (≈ 197 µM); with Escherichia coli (Ec) (setting [14]), 500 µg/mL (≈ 1970 µM). For the same molecule, the MIC was 50 µg/mL (≈ 197 µM) in assay [2] (48 h, pH 6.8, read-out: Minimum Inhibitory Concentration, Kp); 500 µg/mL (≈ 1970 µM) in assay [2] (setting [15]); over 500 µg/mL with Proteus vulgaris (Pv) (setting [16]); 500 µg/mL (≈ 1970 µM) with Proteus vulgaris (Pv) (setting [17]); over 500 µg/mL in [3] (setting [18]); 500 µg/mL (≈ 1970 µM) in assay [3] (setting [19]). Besides, the MIC in [4] (pH 6.8, nutrient agar) was over 500 µg/mL; in assay [4] (pH 8.2, nutrient agar), 500 µg/mL (≈ 1970 µM); in [5] (setting [20]) it was 500 µg/mL (≈ 1970 µM); in assay [5] (pH 6.8, nutrient agar, 30° C., 48 hours, read-out: Minimum Inhibitory Concentration, SC), 50 µg/mL (≈ 197 µM); in [6] (pH 6.8, nutrient agar, 30° C., 48 hours, read-out: Minimum Inhibitory Concentration, Sa) it was 25 µg/mL (≈ 98.5 µM); in assay [6] (pH 8.2, nutrient agar, 30° C., 48 hours, read-out: Minimum Inhibitory Concentration, Sa), 250 µg/mL (≈ 985 µM). In addition, the MIC in the assay on Aspergillus niger (An) was found to be 5 µg/mL (≈ 19.7 µM); in the assay on Candida albicans (Ca), 5 µg/mL (≈ 19.7 µM); in assay [7] (48 h, pH 5.5, read-out: Minimum Inhibitory Concentration, SC), 2.5 µg/mL (≈ 9.85 µM); with Trichoderma viride (Tv), 2.5 µg/mL (≈ 9.85 µM); in assay [8] it was 2.5 µg/mL (≈ 9.85 µM); in the assay with Fusarium oxysporum (Fo) it was 2.5 µg/mL (≈ 9.85 µM).
In the case of `N#CSc1nsnc1-c1ccc(Br)cc1` [Example VI, 4-(4-Bromophenyl)-3-thiocyanato-1,2,5-thiadiazole], the MIC in the assay with Bacillus subtilis (Bs) (48 h, pH 8.2, read-out: Minimum Inhibitory Concentration, Bs) was determined as 500 µg/mL (≈ 1680 µM); in the assay on Bacillus subtilis (Bs) (setting [10]), 25 µg/mL (≈ 83.8 µM); in assay [1] (setting [11]), 500 µg/mL (≈ 1680 µM); in assay [1] (setting [12]) it was 500 µg/mL (≈ 1680 µM); in the assay on Escherichia coli (Ec) (setting [13]), 500 µg/mL (≈ 1680 µM); in the assay with Escherichia coli (Ec) (setting [14]) it was 500 µg/mL (≈ 1680 µM). Also, the MIC was 500 µg/mL (≈ 1680 µM) in assay [2] (setting [15]); 500 µg/mL (≈ 1680 µM) in [2] (pH 6.8, nutrient agar, 30° C., 48 hours, read-out: Minimum Inhibitory Concentration, Kp); 500 µg/mL (≈ 1680 µM) with Proteus vulgaris (Pv) (setting [16]); 500 µg/mL (≈ 1680 µM) with Proteus vulgaris (Pv) (setting [17]); 500 µg/mL (≈ 1680 µM) in [3] (setting [18]); 500 µg/mL (≈ 1680 µM) in [3] (setting [19]). For the same molecule, the MIC in assay [4] (pH 6.8, nutrient agar) worked out at 500 µg/mL (≈ 1680 µM); in [4] (pH 8.2, nutrient agar), 500 µg/mL (≈ 1680 µM); in [5] (48 h, pH 6.8, read-out: Minimum Inhibitory Concentration, SC), 500 µg/mL (≈ 1680 µM); in assay [5] (setting [20]), 500 µg/mL (≈ 1680 µM); in assay [6] (48 h, pH 6.8, read-out: Minimum Inhibitory Concentration, Sa), 50 µg/mL (≈ 168 µM); in assay [6] (48 h, pH 8.2, read-out: Minimum Inhibitory Concentration, Sa) it was 500 µg/mL (≈ 1680 µM). Besides, the MIC was 5 µg/mL (≈ 16.8 µM) in the assay on Aspergillus niger (An); 5 µg/mL (≈ 16.8 µM) in the assay on Candida albicans (Ca); 10 µg/mL (≈ 33.5 µM) in assay [9]; 5 µg/mL (≈ 16.8 µM) in assay [7] (pH 5.5, malt yeast agar, 30° C., 48 hours for yeast, read-out: Minimum Inhibitory Concentration, SC); under 1 µg/mL in the assay on Trichoderma viride (Tv); 2.5 µg/mL (≈ 8.38 µM) in [8].

Values taken from US5488060A, “Substituted thiadiazoles, compositions containing them and their use as antimicrobial and marine antifouling agents” (The Dow Chemical Company, priority 1994, dated 1996).
